The values that follow come from PubChem BioAssay (NCI).

Several values for one entry are separate records, joined by “and”; a condition that tells them apart may be missing. Equal values may be shown once.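 The compound was tested at five concentrations on cells cultured in 96-well plates, with a 48-hour exposure period. The concentration for 50% growth inhibition is given as GI50. TGI: concentration producing complete growth inhibition.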

Among the test systems are SN12C renal; MALME-3M melanoma; NCI-H460 lung; HCT-15 colon; OVCAR-4 ovarian; HCT-116 colon; SR leukemia; SF-539 CNS; SK-OV-3 ovarian.
Holding throughout (assay): growth of human tumour cells (NCI), 48 h

For `O=C1C(Cl)=C(Cl)C(=O)N1C1C2CC3CC(C2)CC1C3` (stereo not given), the TGI with SN12C renal, with MALME-3M melanoma, in the experiment on NCI-H460 lung, with HCT-15 colon, in the experiment with OVCAR-4 ovarian and with HCT-116 colon was > 100 µM throughout. The TGI in the experiment with SR leukemia, with SF-539 CNS and in the experiment with SK-OV-3 ovarian was > 100 µM throughout.
For `O=C1c2cccc3cc([N+](=O)[O-])cc(c23)C(=O)N1CCNCCNCCNCCN1C(=O)c2cccc3cc([N+](=O)[O-])cc(c23)C1=O`, the GI50 was 0.0367 µM in the experiment on SN12C renal, < 0.001 µM in the experiment on OVCAR-4 ovarian and 0.0273 µM in the experiment on SK-OV-3 ovarian. In addition, the TGI is 2.77 µM and 2.65 µM in the experiment with SN12C renal; 0.297 µM in the experiment with MALME-3M melanoma; 0.0413 µM with NCI-H460 lung; 1.08 µM in the experiment with HCT-15 colon; 0.0473 µM and 0.415 µM in the experiment on OVCAR-4 ovarian; 1.08 µM with HCT-116 colon. The TGI was 0.304 µM and 0.357 µM with SF-539 CNS; 0.341 µM and 0.598 µM with SK-OV-3 ovarian.
Regarding `COC(=O)C1CC(C(=O)OC)c2nc3cc(C)ccc3nc21` (stereo not given), the TGI in the experiment on SN12C renal, in the experiment with MALME-3M melanoma, in the experiment with NCI-H460 lung, with HCT-15 colon, in the experiment on OVCAR-4 ovarian and in the experiment with SF-539 CNS was > 100 µM each time. Besides, the TGI with SK-OV-3 ovarian is > 100 µM.
Consider `Cc1ccc(NC(=O)CC2C(=O)Nc3ccccc3S2=O)cc1C` (stereo not given), for which the TGI was > 100 µM in the experiment with SN12C renal; > 100 µM with MALME-3M melanoma; > 100 µM with NCI-H460 lung; > 100 µM in the experiment on HCT-15 colon; 34.3 µM in the experiment with OVCAR-4 ovarian; > 100 µM in the experiment on HCT-116 colon. Also, the TGI in the experiment on SR leukemia is > 100 µM; with SF-539 CNS it was 47.5 µM.
As to `CC(CN(CP(=O)([O-])[O-])CP(=O)([O-])[O-])N(CP(=O)([O-])[O-])CP(=O)([O-])[O-].N.N.[Pt+2]` (stereo not given), the GI50 in the experiment on SN12C renal, in the experiment with MALME-3M melanoma, with NCI-H460 lung, in the experiment on HCT-15 colon, in the experiment with OVCAR-4 ovarian and with HCT-116 colon was > 100 µM throughout. Also, the GI50 in the experiment with SF-539 CNS and with SK-OV-3 ovarian was > 100 µM in each case. The TGI with SN12C renal, in the experiment with MALME-3M melanoma, in the experiment on NCI-H460 lung, with HCT-15 colon, in the experiment on OVCAR-4 ovarian and with HCT-116 colon was > 100 µM each time. The TGI with SF-539 CNS and in the experiment with SK-OV-3 ovarian was > 100 µM in each case.
Turning to `Clc1ccc(Cl)c2[s+]snc12`, the TGI is > 100 µM with SN12C renal; 99.5 µM with MALME-3M melanoma; > 88.3 µM in the experiment on NCI-H460 lung; > 65.5 µM in the experiment with HCT-15 colon; > 100 µM with OVCAR-4 ovarian; > 54.9 µM with HCT-116 colon. Besides, the TGI with SR leukemia, in the experiment on SF-539 CNS and in the experiment on SK-OV-3 ovarian was > 100 µM throughout.
As to `O=S(=O)([O-])c1cccc2cccc(N=Cc3ccccc3[O-])c12.O=S(=O)([O-])c1cccc2cccc(N=Cc3ccccc3[O-])c12.[O]=[U]=[O]`, the GI50 with SN12C renal is > 100 µM; with MALME-3M melanoma, > 100 µM; in the experiment with NCI-H460 lung it was 55.6 µM; in the experiment on HCT-15 colon, 49 µM; in the experiment with OVCAR-4 ovarian, 41.6 µM; in the experiment on HCT-116 colon, 22.3 µM. Further, the GI50 in the experiment on SF-539 CNS was 36.3 µM; with SK-OV-3 ovarian it was > 100 µM. Further, the TGI in the experiment with SN12C renal, with MALME-3M melanoma, in the experiment on NCI-H460 lung, with HCT-15 colon, in the experiment on OVCAR-4 ovarian and in the experiment on HCT-116 colon was > 100 µM throughout. The TGI in the experiment on SF-539 CNS and with SK-OV-3 ovarian was > 100 µM throughout.
For the compound `CC1OC(n2ncc(=O)[nH]c2=O)C=CC1=O` (stereo not given), the TGI in the experiment with SN12C renal is > 100 µM; in the experiment on MALME-3M melanoma, 40.2 µM and 48.3 µM; with NCI-H460 lung it was > 100 µM; with HCT-15 colon, > 100 µM; in the experiment on OVCAR-4 ovarian it was > 100 µM; in the experiment on HCT-116 colon it was > 100 µM. In addition, the TGI is > 100 µM and 92.9 µM in the experiment on SR leukemia; > 100 µM and 47.9 µM with SF-539 CNS; > 100 µM with SK-OV-3 ovarian. The GI50 was 90.5 µM and 34.6 µM in the experiment on HCT-15 colon; > 100 µM and 29.3 µM in the experiment on SK-OV-3 ovarian.
As for `Clc1ccc(-n2nnc(C3=NCCN3)c2-c2ccccc2)cc1`, the TGI with SN12C renal, with MALME-3M melanoma, with NCI-H460 lung, in the experiment with HCT-15 colon, in the experiment with OVCAR-4 ovarian and in the experiment with HCT-116 colon was > 100 µM each time. Besides, the TGI in the experiment with SR leukemia, in the experiment with SF-539 CNS and in the experiment with SK-OV-3 ovarian was > 100 µM each time.
As for `COc1ccc2[nH]c(-c3ccccn3)cc(=O)c2c1`, the TGI was > 100 µM in the experiment on SN12C renal; 75.6 µM in the experiment with MALME-3M melanoma; > 100 µM with NCI-H460 lung; > 100 µM with OVCAR-4 ovarian; > 100 µM in the experiment on HCT-116 colon; 91.9 µM with SF-539 CNS. For the same compound, in the experiment with SK-OV-3 ovarian, the TGI is > 100 µM. In the experiment with HCT-116 colon, the GI50 is 33.6 µM.
With `O=C(O)CNc1c2ccccc2nc2ccccc12`, the TGI in the experiment on SN12C renal, in the experiment on MALME-3M melanoma, in the experiment with NCI-H460 lung, with HCT-15 colon, in the experiment on OVCAR-4 ovarian and with HCT-116 colon was > 100 µM in each case. Moreover, the TGI in the experiment on SR leukemia, in the experiment with SF-539 CNS and with SK-OV-3 ovarian was > 100 µM each time.
Regarding `COC(=O)C1=C(C)N(NC(N)=O)C2(N)N(NC(N)=O)C(C)=C(C(=O)OC)C12C(=O)OC` (stereo not given), the TGI with SN12C renal, with MALME-3M melanoma, with NCI-H460 lung, in the experiment on HCT-15 colon, with OVCAR-4 ovarian and with HCT-116 colon was > 100 µM throughout. Moreover, the TGI with SF-539 CNS and in the experiment with SK-OV-3 ovarian was > 100 µM in each case.
Turning to `CCCCCCCCCC(=O)CC(=O)c1ccc(O)cc1O`, the TGI was 74.4 µM in the experiment on SN12C renal; > 100 µM with MALME-3M melanoma; > 100 µM with NCI-H460 lung; > 100 µM in the experiment with HCT-15 colon; > 100 µM in the experiment on OVCAR-4 ovarian; 66.6 µM in the experiment with HCT-116 colon. For the same compound, the TGI is 44.9 µM in the experiment on SR leukemia, 96.5 µM with SF-539 CNS and > 100 µM in the experiment with SK-OV-3 ovarian.
